Source: ChEMBL document CHEMBL1133242, “Selective alpha1a adrenergic receptor antagonists based on 4-aryl-3,4-dihydropyridine-2-ones” (Bioorg Med Chem Lett, 2000)

Legend:
[1] = target: T1, Alpha-1D adrenergic receptor (Homo sapiens, UniProt P25100); experiment: In vitro antagonism at Alpha-1D adrenergic receptor; type: functional
T1 sequence (P25100 whole entry): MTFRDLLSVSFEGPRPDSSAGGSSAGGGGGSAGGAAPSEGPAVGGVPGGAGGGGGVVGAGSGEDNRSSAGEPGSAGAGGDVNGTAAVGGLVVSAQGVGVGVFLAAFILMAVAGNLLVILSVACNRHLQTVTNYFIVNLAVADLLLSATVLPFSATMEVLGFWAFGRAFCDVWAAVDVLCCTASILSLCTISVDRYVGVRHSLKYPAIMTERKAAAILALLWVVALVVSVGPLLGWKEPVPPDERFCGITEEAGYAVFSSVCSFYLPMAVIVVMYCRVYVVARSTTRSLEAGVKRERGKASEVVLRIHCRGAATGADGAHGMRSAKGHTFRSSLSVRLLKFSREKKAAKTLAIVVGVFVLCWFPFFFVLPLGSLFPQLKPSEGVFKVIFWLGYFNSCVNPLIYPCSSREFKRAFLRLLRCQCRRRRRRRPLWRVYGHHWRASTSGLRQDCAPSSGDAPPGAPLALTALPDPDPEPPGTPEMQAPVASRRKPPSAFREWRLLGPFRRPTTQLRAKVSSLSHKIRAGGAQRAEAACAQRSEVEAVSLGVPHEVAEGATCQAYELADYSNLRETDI

[2] = target: T2, Alpha-1A adrenergic receptor (Homo sapiens, UniProt P35348); experiment: In vitro antagonism at Alpha-1A adrenergic receptor; type: functional
T2 sequence (P35348 whole entry): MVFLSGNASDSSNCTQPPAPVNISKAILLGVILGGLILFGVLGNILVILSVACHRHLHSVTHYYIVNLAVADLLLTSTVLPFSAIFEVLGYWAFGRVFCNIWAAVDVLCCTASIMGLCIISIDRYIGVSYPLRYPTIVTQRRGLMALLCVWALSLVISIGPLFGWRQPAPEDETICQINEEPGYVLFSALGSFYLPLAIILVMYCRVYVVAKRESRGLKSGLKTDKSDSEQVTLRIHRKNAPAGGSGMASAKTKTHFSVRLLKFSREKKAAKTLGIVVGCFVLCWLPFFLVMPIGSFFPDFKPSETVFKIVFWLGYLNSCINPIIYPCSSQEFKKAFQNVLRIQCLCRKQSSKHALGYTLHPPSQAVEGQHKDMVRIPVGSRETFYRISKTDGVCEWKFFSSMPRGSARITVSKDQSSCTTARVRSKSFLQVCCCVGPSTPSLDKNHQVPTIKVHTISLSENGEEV

[3] = target: T3, Alpha-1B adrenergic receptor (Homo sapiens, UniProt P35368); experiment: In vitro antagonism at Alpha-1B adrenergic receptor; type: functional
T3 sequence (P35368 whole entry): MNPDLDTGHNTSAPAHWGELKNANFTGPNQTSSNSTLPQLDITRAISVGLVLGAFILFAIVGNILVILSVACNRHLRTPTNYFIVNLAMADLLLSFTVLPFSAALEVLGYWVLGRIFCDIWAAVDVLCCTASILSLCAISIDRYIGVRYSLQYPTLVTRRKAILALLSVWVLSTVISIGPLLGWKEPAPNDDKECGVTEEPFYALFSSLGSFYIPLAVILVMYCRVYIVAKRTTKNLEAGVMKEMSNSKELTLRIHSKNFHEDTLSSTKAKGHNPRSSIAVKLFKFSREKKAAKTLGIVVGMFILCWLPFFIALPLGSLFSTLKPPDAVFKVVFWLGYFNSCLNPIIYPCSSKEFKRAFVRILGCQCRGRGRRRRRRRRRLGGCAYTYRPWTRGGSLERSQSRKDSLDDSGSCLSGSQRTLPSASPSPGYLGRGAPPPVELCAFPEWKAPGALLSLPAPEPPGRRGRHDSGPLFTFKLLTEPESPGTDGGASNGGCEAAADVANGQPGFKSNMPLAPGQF

[4] = target: T4, Alpha-2B adrenergic receptor (Homo sapiens, UniProt P18089); experiment: […] inhibitory effect against alpha-2b Adrenergic receptor
T4 sequence (P18089 whole entry): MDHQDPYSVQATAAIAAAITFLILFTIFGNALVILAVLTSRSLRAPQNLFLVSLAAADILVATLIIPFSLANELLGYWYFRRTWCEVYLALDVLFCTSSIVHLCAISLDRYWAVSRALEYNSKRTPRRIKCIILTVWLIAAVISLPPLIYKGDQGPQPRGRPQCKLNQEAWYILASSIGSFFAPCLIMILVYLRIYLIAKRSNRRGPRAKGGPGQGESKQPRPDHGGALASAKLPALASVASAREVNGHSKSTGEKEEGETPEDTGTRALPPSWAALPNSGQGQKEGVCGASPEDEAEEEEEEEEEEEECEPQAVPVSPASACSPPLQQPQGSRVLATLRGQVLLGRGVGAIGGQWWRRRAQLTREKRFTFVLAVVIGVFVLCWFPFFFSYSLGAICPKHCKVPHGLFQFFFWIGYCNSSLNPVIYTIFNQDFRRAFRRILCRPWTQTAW

[5] = target: T5, Alpha-2C adrenergic receptor (Homo sapiens, UniProt P18825); experiment: […] inhibitory effect against Alpha-2C adrenergic receptor
T5 sequence (P18825 whole entry): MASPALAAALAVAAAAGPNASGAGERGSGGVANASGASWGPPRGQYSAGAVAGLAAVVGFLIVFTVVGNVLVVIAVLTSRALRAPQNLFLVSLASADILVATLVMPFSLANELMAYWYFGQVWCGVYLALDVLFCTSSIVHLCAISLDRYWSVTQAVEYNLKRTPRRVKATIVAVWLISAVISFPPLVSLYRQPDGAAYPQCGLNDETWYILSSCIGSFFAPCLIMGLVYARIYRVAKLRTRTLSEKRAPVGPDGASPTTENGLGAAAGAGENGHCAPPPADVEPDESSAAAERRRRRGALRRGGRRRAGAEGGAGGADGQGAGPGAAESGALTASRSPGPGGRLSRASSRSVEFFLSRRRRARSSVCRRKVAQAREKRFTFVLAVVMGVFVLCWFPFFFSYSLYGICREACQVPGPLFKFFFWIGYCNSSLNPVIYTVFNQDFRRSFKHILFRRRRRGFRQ

[6] = target: Histamine H1 receptor (Homo sapiens, UniProt P35367); experiment: Selectivity screen against human Histamine H1 receptor
[7] = species: Rattus norvegicus; experiment: Dose required to inhibit the prostate contractile response by 50% after challenge with selective alpha-1a agonist A61603 in an in situ rat prostate model; type: functional, Prostate gland
[8] = target: T6, Alpha-2A adrenergic receptor (Homo sapiens, UniProt P08913); experiment: […] inhibitory effect against Alpha-2A adrenergic receptor
T6 sequence (P08913 whole entry): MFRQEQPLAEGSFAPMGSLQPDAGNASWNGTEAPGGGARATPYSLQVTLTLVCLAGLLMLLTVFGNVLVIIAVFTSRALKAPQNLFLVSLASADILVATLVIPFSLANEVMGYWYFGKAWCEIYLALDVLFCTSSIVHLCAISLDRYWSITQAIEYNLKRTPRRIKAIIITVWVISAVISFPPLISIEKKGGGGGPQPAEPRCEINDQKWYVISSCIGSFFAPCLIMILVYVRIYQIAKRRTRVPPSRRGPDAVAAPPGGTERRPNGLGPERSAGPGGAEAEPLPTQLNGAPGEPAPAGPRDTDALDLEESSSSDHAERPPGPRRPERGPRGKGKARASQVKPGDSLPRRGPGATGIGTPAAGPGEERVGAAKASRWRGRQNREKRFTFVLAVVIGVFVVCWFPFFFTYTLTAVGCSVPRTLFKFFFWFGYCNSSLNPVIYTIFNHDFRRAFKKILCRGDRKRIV

[9] = species: Rattus norvegicus; experiment: Dose required to inhibit the prostate contractile response by 50% after challenge with selective alpha-1a agonist A61603 and duration of action was 1 hr in an in situ rat prostate model; type: functional, Prostate gland

Chain of Histamine H1 receptor (P35367 whole entry): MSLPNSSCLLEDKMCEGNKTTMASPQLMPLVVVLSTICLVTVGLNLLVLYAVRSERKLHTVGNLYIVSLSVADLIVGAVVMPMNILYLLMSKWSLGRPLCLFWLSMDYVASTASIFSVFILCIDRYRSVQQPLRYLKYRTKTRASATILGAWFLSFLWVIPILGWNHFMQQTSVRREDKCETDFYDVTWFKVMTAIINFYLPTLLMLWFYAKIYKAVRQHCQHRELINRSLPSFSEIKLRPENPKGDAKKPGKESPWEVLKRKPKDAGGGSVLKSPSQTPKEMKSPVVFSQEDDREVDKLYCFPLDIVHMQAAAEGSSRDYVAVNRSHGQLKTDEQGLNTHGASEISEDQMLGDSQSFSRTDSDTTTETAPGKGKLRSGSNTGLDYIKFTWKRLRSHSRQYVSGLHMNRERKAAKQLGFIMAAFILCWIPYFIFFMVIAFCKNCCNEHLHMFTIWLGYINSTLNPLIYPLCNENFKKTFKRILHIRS

SMILES	Ki [1] [nM]	Ki [2] [nM]	Ki [3] [nM]	Ki [4] [nM]	Ki [5] [nM]	Ki [6] [nM]	Ki [8] [nM]	AD50 [7] [mg/kg]	AD50 [9] [mg/kg]
CC1=C(C(=O)NCCCN2CCC(C#N)(c3ccccn3)CC2)[C@@H](c2ccc(F)c(F)c2)CC(=O)N1C	> 5000		> 2000						
CC1=C(C(=O)NCCCN2CCC(C#N)(c3ccc(F)cc3C#N)CC2)[C@@H](c2ccc(F)c(F)c2)CC(=O)N1C	> 5000	7	> 2000	1760	6530	616	13600		
CC1=C(C(=O)NCCCN2CCC(C#N)(c3ccc(F)cc3C#N)CC2)[C@@H](c2ccc(F)c(F)c2)CC(=O)N1	> 5000	1.4	> 2000	676	4680	91	7850		
CC1=C(C(=O)NCCCN2CCC(C#N)(c3ccccc3C#N)CC2)[C@@H](c2ccc(F)c(F)c2)CC(=O)N1	> 5000	3.2	> 2000						

These reach a lower Ki [1]. Values come first.

Ki [1] [nM]	Ki [2] [nM]	Ki [3] [nM]	Ki [4] [nM]	Ki [5] [nM]	Ki [6] [nM]	Ki [8] [nM]	SMILES	AD50 [7] [mg/kg]	AD50 [9] [mg/kg]
1160	1.1	842	955	1910	302	3390	CC1=C(C(=O)NCCCN2CCC(C#N)(c3ccc(F)cc3F)CC2)[C@@H](c2ccc(F)c(F)c2)CC(=O)N1C		0.029
1050	1.8	1040			63		CC1=C(C(=O)NCCCN2CCC(C#N)(c3ccc(F)cc3)CC2)[C@@H](c2ccc(F)c(F)c2)CC(=O)N1		
682	3	1200					CC1=C(C(=O)NCCCN2CCC(c3ccccc3C#N)CC2)[C@@H](c2ccc(F)c(F)c2)CC(=O)N1C		
330	1	330					CC1=C(C(=O)NCCCN2CCC(c3ccccc3C#N)CC2)[C@@H](c2ccc(F)c(F)c2)CC(=O)N1		
200	0.4	37	162	313	19	229	CC1=C(C(=O)NCCCN2CCC(c3ccc(F)cc3)CC2)[C@@H](c2ccc(F)c(F)c2)CC(=O)N1	0.032	
